Laboratory results as given in US8952024B2, “Herbicidal pyrimidone derivatives” (E I du Pont de Nemours and Company, priority 2009, dated 2015).

Tests used:
Format in all cases: in vivo
[1] = tested on: barnyardgrass (Echinochloa crus-galli); test: Test A pre-/postemergence plant response; details: for Barnyardgrass plant response rating: visual injury, 0 to 100 scale (0 no effect, 100 complete control), approx. ten days
Outline: (§1)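 Seeds planted in loam soil/sand blend; test chemicals in non-phytotoxic solvent mixture with surfactant applied as directed soil spray preemergence and, concurrently, postemergence to plants 2–10 cm tall at one- to two-leaf stage. Greenhouse ~10 days; visual injury vs untreated controls, 0 (no effect) to 100 (complete control).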

corn (Zea mays) = test: Test A pre-/postemergence plant response; details: for Corn plant response rating: visual injury, 0 to 100 scale (0 no effect, 100 complete control), approx. ten days
Outline: as §1

[2] = tested on: giant foxtail (Setaria faberii); test: Test A pre-/postemergence plant response
Outline: as §1

[3] = tested on: large crabgrass (Digitaria sanguinalis); test: Test A pre-/postemergence plant response; details: for Crabgrass, Large plant response rating: visual injury, 0 to 100 scale (0 no effect, 100 complete control), approx. ten days
Outline: as §1

[4] = tested on: morningglory (Ipomoea spp.); test: Test A pre-/postemergence plant response
Outline: as §1

[5] = tested on: pigweed (Amaranthus retroflexus); test: Test A pre-/postemergence plant response
Outline: as §1

[6] = tested on: velvetleaf (Abutilon theophrasti); test: Test A pre-/postemergence plant response
Outline: as §1

[7] = tested on: wheat (Triticum aestivum); test: Test A pre-/postemergence plant response
Outline: as §1

[8] = tested on: barnyardgrass (Echinochloa crus-galli); test: Test B flooded paddy test; details: for Plant response rating, Flood, Barnyardgrass: 250 g ai/ha, flooded paddy test, visual rating on 0 to 100 scale (0 no effect, 100 complete control) after 13 to 15 days; for Plant response rating, Barnyardgrass: Flood (flooded paddy test), 13 to 15 days; for Barnyardgrass plant response rating: Flood, 31 g ai/ha, scale 0 to 100 (0 no effect, 100 complete control)
Outline: (§2)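 Post-flood paddy application: compounds are introduced into water 3 cm deep over the soil, reaching plants at the 2-leaf stage. The water level is maintained, and after 13–15 days under greenhouse conditions, response is judged by eye relative to controls, where 100 means complete control.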

[9] = tested on: ducksalad (Heteranthera limosa); test: Test B flooded paddy test; details: for Plant response rating, Flood, Ducksalad: 250 g ai/ha, flooded paddy test, visual rating on 0 to 100 scale (0 no effect, 100 complete control) after 13 to 15 days; for Plant response rating, Ducksalad: Flood (flooded paddy test), 13 to 15 days; for Ducksalad plant response rating: Flood, 31 g ai/ha, scale 0 to 100 (0 no effect, 100 complete control)
Outline: as §2

rice (Oryza sativa) = test: Test B flooded paddy test; details: for Plant response rating, Flood, Rice: 250 g ai/ha, flooded paddy test, visual rating on 0 to 100 scale (0 no effect, 100 complete control) after 13 to 15 days; for Plant response rating, Rice: Flood (flooded paddy test), 13 to 15 days; for Rice plant response rating: Flood, 31 g ai/ha, scale 0 to 100 (0 no effect, 100 complete control)
Outline: as §2

[10] = tested on: umbrella sedge (Cyperus difformis); test: Test B flooded paddy test; details: for Plant response rating, Flood, Sedge, Umbrella: 250 g ai/ha, flooded paddy test, visual rating on 0 to 100 scale (0 no effect, 100 complete control) after 13 to 15 days; for Plant response rating, Sedge, Umbrella: Flood (flooded paddy test), 13 to 15 days; for Sedge, Umbrella plant response rating: Flood, 31 g ai/ha, scale 0 to 100 (0 no effect, 100 complete control)
Outline: as §2

[11] = Postemergence, 125 g ai/ha, 0 to 100 scale where 0 is no effect and 100 is complete control
[12] = Preemergence, 125 g ai/ha, 0 to 100 scale, 0 = no effect, 100 = complete control
[13] = Preemergence, 500 g ai/ha, 0 to 100 scale, 0 = no effect, 100 = complete control
[14] = Postemergence, 500 g ai/ha, visual injury, 0 to 100 scale (0 no effect, 100 complete control), approx. ten days
[15] = 62 g ai/ha, scale of 0 to 100 where 0 is no effect and 100 is complete control
[16] = 125 g ai/ha, scale 0 to 100, 0 is no effect, 100 is complete control
[17] = Preemergence, 125 g ai/ha, 0 to 100 scale where 0 is no effect and 100 is complete control, approximately ten days
[18] = Postemergence, 125 g ai/ha, visual injury, 0 to 100 scale (0 no effect, 100 complete control), approx. ten days

## CCCn1c(-c2ccccc2)ncc(C(=O)C2=C(O)C3CCC(C3)C2=O)c1=O (stereo not drawn) [Compound 226]
[1]; [11]
  Plant response rating, Barnyardgrass: 90
[1]; Postemergence, 500 g ai/ha
  Barnyardgrass plant response rating: 90
[1]; [12]
  Plant response rating, Barnyardgrass: 30
[1]; [13]
  Plant response rating, Barnyardgrass: 100
Corn (Zea mays); [11]
  Plant response rating, Corn: 10
Corn (Zea mays); Postemergence, 500 g ai/ha
  Corn plant response rating: 60
Corn (Zea mays); [12]
  Plant response rating, Corn: 0
Corn (Zea mays); [13]
  Plant response rating, Corn: 0
[2]; [11]
  Plant response rating, Foxtail, Giant: 90
[2]; [14]
  Foxtail, Giant plant response rating: 90
[2]; [12]
  Plant response rating, Foxtail, Giant: 70
[2]; [13]
  Plant response rating, Foxtail, Giant: 90
[3]; [11]
  Plant response rating, Crabgrass, Large: 90
[3]; Postemergence, 500 g ai/ha
  Crabgrass, Large plant response rating: 100
[3]; [12]
  Plant response rating, Crabgrass, Large: 90
[3]; [13]
  Plant response rating, Crabgrass, Large: 100
[4]; [11]
  Plant response rating, Morningglory: 100
[4]; [14]
  Morningglory plant response rating: 100
[4]; [12]
  Plant response rating, Morningglory: 60
[4]; [13]
  Plant response rating, Morningglory: 80
[5]; [11]
  Plant response rating, Pigweed: 100
[5]; [14]
  Pigweed plant response rating: 100
[5]; [12]
  Plant response rating, Pigweed: 100
[5]; [13]
  Plant response rating, Pigweed: 100
[6]; [11]
  Plant response rating, Velvetleaf: 100
[6]; [14]
  Velvetleaf plant response rating: 100
[6]; [12]
  Plant response rating, Velvetleaf: 80
[6]; [13]
  Plant response rating, Velvetleaf: 100
[7]; [11]
  Plant response rating, Wheat: 0
[7]; [14]
  Wheat plant response rating: 50
[7]; [12]
  Plant response rating, Wheat: 0
[7]; [13]
  Plant response rating, Wheat: 10
[8]
  Plant response rating, Flood, Barnyardgrass: 95
  Barnyardgrass plant response rating: 50
[8]; [15]
  Plant response rating, Barnyardgrass: 60
[8]; [16]
  Plant response rating, Barnyardgrass: 95
[9]
  Plant response rating, Flood, Ducksalad: 40
  Ducksalad plant response rating: 0
[9]; [15]
  Plant response rating, Ducksalad: 0
[9]; [16]
  Plant response rating, Ducksalad: 30
Rice (Oryza sativa)
  Plant response rating, Flood, Rice: 65
  Rice plant response rating: 20
Rice (Oryza sativa); [15]
  Plant response rating, Rice: 40
Rice (Oryza sativa); [16]
  Plant response rating, Rice: 60
[10]
  Plant response rating, Flood, Sedge, Umbrella: 60
  Sedge, Umbrella plant response rating: 30
[10]; [15]
  Plant response rating, Sedge, Umbrella: 40
[10]; [16]
  Plant response rating, Sedge, Umbrella: 50

## CCn1c(-c2cccc(F)c2)ncc(C(=O)C2=C(O)C3CCC(C3)C2=O)c1=O (stereo not drawn) [Compound 236]
[1]; [11]
  Plant response rating, Barnyardgrass: 90
[1]; Postemergence, 500 g ai/ha
  Barnyardgrass plant response rating: 90
[1]; [12]
  Plant response rating, Barnyardgrass: 50
[1]; [13]
  Plant response rating, Barnyardgrass: 90
Corn (Zea mays); [11]
  Plant response rating, Corn: 20
Corn (Zea mays); Postemergence, 500 g ai/ha
  Corn plant response rating: 50
Corn (Zea mays); [12]
  Plant response rating, Corn: 0
Corn (Zea mays); [13]
  Plant response rating, Corn: 10
[2]; [11]
  Plant response rating, Foxtail, Giant: 70
[2]; [14]
  Foxtail, Giant plant response rating: 90
[2]; [12]
  Plant response rating, Foxtail, Giant: 40
[2]; [13]
  Plant response rating, Foxtail, Giant: 70
[3]; [11]
  Plant response rating, Crabgrass, Large: 80
[3]; Postemergence, 500 g ai/ha
  Crabgrass, Large plant response rating: 90
[3]; [12]
  Plant response rating, Crabgrass, Large: 80
[3]; [13]
  Plant response rating, Crabgrass, Large: 100
[4]; [11]
  Plant response rating, Morningglory: 100
[4]; [14]
  Morningglory plant response rating: 100
[4]; [12]
  Plant response rating, Morningglory: 70
[4]; [13]
  Plant response rating, Morningglory: 80
[5]; [11]
  Plant response rating, Pigweed: 80
[5]; [14]
  Pigweed plant response rating: 100
[5]; [12]
  Plant response rating, Pigweed: 80
[5]; [13]
  Plant response rating, Pigweed: 90
[6]; [11]
  Plant response rating, Velvetleaf: 100
[6]; [14]
  Velvetleaf plant response rating: 100
[6]; [12]
  Plant response rating, Velvetleaf: 80
[6]; [13]
  Plant response rating, Velvetleaf: 100
[7]; [11]
  Plant response rating, Wheat: 0
[7]; [14]
  Wheat plant response rating: 40
[7]; [12]
  Plant response rating, Wheat: 0
[7]; [13]
  Plant response rating, Wheat: 30
[8]
  Plant response rating, Flood, Barnyardgrass: 20
  Barnyardgrass plant response rating: 0
[8]; [15]
  Plant response rating, Barnyardgrass: 0
[8]; [16]
  Plant response rating, Barnyardgrass: 0
[9]
  Plant response rating, Flood, Ducksalad: 70
  Ducksalad plant response rating: 0
[9]; [15]
  Plant response rating, Ducksalad: 0
[9]; [16]
  Plant response rating, Ducksalad: 60
Rice (Oryza sativa)
  Plant response rating, Flood, Rice: 0
  Rice plant response rating: 0
Rice (Oryza sativa); [15]
  Plant response rating, Rice: 0
Rice (Oryza sativa); [16]
  Plant response rating, Rice: 0
[10]
  Plant response rating, Flood, Sedge, Umbrella: 40
  Sedge, Umbrella plant response rating: 0
[10]; [15]
  Plant response rating, Sedge, Umbrella: 0
[10]; [16]
  Plant response rating, Sedge, Umbrella: 0

## COCCCn1c(-c2cc(F)cc(F)c2)ncc(C(=O)C2=C(O)C3CCC(C3)C2=O)c1=O (stereo not drawn) [Compound 244]
[1]; [11]
  Plant response rating, Barnyardgrass: 90
[1]; Postemergence, 500 g ai/ha
  Barnyardgrass plant response rating: 100
[1]; [17]
  Plant response rating, Barnyardgrass: 30
[1]; [13]
  Plant response rating, Barnyardgrass: 100
Corn (Zea mays); [11]
  Plant response rating, Corn: 40
Corn (Zea mays); Postemergence, 500 g ai/ha
  Corn plant response rating: 80
Corn (Zea mays); [17]
  Plant response rating, Corn: 20
Corn (Zea mays); [13]
  Plant response rating, Corn: 40
[2]; [18]
  Plant response rating, Foxtail, Giant: 90
[2]; [14]
  Foxtail, Giant plant response rating: 90
[2]; [17]
  Plant response rating, Foxtail, Giant: 70
[2]; [13]
  Plant response rating, Foxtail, Giant: 100
[3]; [11]
  Plant response rating, Crabgrass, Large: 90
[3]; Postemergence, 500 g ai/ha
  Crabgrass, Large plant response rating: 90
[3]; [17]
  Plant response rating, Crabgrass, Large: 90
[3]; [13]
  Plant response rating, Crabgrass, Large: 100
[4]; [18]
  Plant response rating, Morningglory: 100
[4]; [14]
  Morningglory plant response rating: 100
[4]; [17]
  Plant response rating, Morningglory: 30
[4]; [13]
  Plant response rating, Morningglory: 80
[5]; [18]
  Plant response rating, Pigweed: 100
[5]; [14]
  Pigweed plant response rating: 100
[5]; [17]
  Plant response rating, Pigweed: 100
[5]; [13]
  Plant response rating, Pigweed: 100
[6]; [18]
  Plant response rating, Velvetleaf: 100
[6]; [14]
  Velvetleaf plant response rating: 100
[6]; [17]
  Plant response rating, Velvetleaf: 50
[6]; [13]
  Plant response rating, Velvetleaf: 100
[7]; [18]
  Plant response rating, Wheat: 40
[7]; [14]
  Wheat plant response rating: 70
[7]; [17]
  Plant response rating, Wheat: 0
[7]; [13]
  Plant response rating, Wheat: 40
[8]
  Plant response rating, Flood, Barnyardgrass: 75
  Barnyardgrass plant response rating: 0
[8]; [15]
  Plant response rating, Barnyardgrass: 20
[8]; [16]
  Plant response rating, Barnyardgrass: 40
[9]
  Plant response rating, Flood, Ducksalad: 100
  Ducksalad plant response rating: 35
[9]; [15]
  Plant response rating, Ducksalad: 80
[9]; [16]
  Plant response rating, Ducksalad: 100
Rice (Oryza sativa)
  Plant response rating, Flood, Rice: 85
  Rice plant response rating: 0
Rice (Oryza sativa); [15]
  Plant response rating, Rice: 0
Rice (Oryza sativa); [16]
  Plant response rating, Rice: 60
[10]
  Plant response rating, Flood, Sedge, Umbrella: 100
  Sedge, Umbrella plant response rating: 0
[10]; [15]
  Plant response rating, Sedge, Umbrella: 0
[10]; [16]
  Plant response rating, Sedge, Umbrella: 100
